Read-outs that look alike come from different tables or passages of the source.
Experiments:
Myzus persicae [1] = assay: Myzus persicae - spray test (Chinese cabbage leaf discs); assay type: in vivo; details: Myzus persicae, foliar; application rate 500 g/ha, after 5-6 days; read-out: efficacy
Summary of the method: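 Chinese cabbage leaf discs carrying all aphid stages were sprayed with compound dissolved in acetone/dimethylformamide and diluted in water with 1000 ppm alkylaryl polyglycol ether emulsifier. Efficacy was recorded after 5-6 days as % aphids killed (100% = all, 0% = none).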

Myzus persicae [2] = assay: Myzus persicae - oral test; assay type: in vivo; details: Myzus persicae, po, 120 h; application rate 20 ppm, after 5 days; read-out: efficacy
Summary of the method: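 Aphid feeding test: compound dissolved in acetone, diluted with water and mixed with IPL41 insect medium plus sugar, offered through parafilm to a mixed population of green peach aphids. Mortality scored after 5 days as % efficacy (100% = all aphids dead, 0% = none dead).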

Myzus persicae [3] = assay: Myzus persicae - spray test (MYZUPE), Chinese cabbage leaf discs; assay type: in vivo; details: foliar, 120 h, 5 dat; for Emax at 20 g/ha / percent efficacy (aphid mortality) at 20 g/ha: 20 g of ai/ha; for Emax at 20 g/ha: read-out: % efficacy; for percent efficacy (aphid mortality) at 100 g/ha: 100 g of ai/ha
Method: Myzus persicae—Spray Test (MYZUPE)
Solvent: 78.0 parts by weight of acetone • • 1.5 parts by weight of dimethylformamide
(§1) Emulsifier: alkylaryl polyglycol ether
(§2) To produce a suitable active compound preparation, 1 part by weight of active compound is dissolved using the stated parts by weight of solvent and made up with water containing an emulsifier concentration of 1000 ppm until the desired concentration is attained. To produce further test concentrations, the formulation is diluted with emulsifier-containing water.
Discs of Chinese cabbage leaves (Brassica pekinensis) infested by all stages of the green peach aphid (Myzus persicae) are sprayed with an active compound preparation of the desired concentration.
(§3) After the desired period of time, the efficacy in % is determined. 100% means that all the aphids have been killed; 0% means that no aphids have been killed.

Myzus persicae [4] = assay: Myzus persicae - oral test (MYZUPE O); assay type: in vivo; details: 120 h, 5 dat, read-out: % efficacy
Method: Myzus persicae—Oral Test (MYZUPE O)
Solvent: 100 parts by weight of acetone
To produce a suitable preparation of active compound, 1 part by weight of active compound is dissolved using the specified parts by weight of solvent and made up with water until the desired concentration is attained.
50 μl of the active compound preparation are transferred into microtitre plates and made up to a final volume of 200 μl with 150 μl of IPL41 insect medium (33%+15% sugar). Subsequently, the plates are sealed with parafilm, which a mixed population of green peach aphids (Myzus persicae) within a second microtitre plate is able to puncture and imbibe the solution through it.
as §3

Myzus persicae [5] = assay: Myzus persicae - spray test (MYZUPE S), bell pepper plants; assay type: in vivo; details: 144 h, 6 dat, read-out: % efficacy
Method: Myzus persicae—Spray Test (MYZUPE S)
(§4) Solvent: 14 parts by weight of dimethylformamide
as §1
as §2, with “with” for “using”, “specified” for “stated”, “water. If the addition of ammonium salts or/and penetrants is required, these are each added in a concentration of 1000 ppm to the formulation solution.” for “water.”
Bell pepper plants (Capsicum annuum) severely infested with the green peach aphid (Myzus persicae) are treated by spraying with the active ingredient formulation in the desired concentration.
After the desired time, the kill in % is determined. 100% means that all the animals have been killed; 0% means that no animals have been killed.

Myzus persicae [6] = assay: Myzus persicae - drench test (MYZUPE D), Savoy cabbage in soil; assay type: in vivo; details: 240 h, 10 dat, read-out: % efficacy
Method: Myzus persicae—Drench Test (MYZUPE D)
To produce a suitable active compound preparation, 1 part by weight of active compound is mixed with the specified amounts of solvent and emulsifier, and the concentrate is diluted with water to the desired concentration, it being necessary to include the volume of soil which is drenched in the calculation. It should be ensured that a concentration of 40 ppm of emulsifier in the soil is not exceeded. To produce further test concentrations, water is used for dilution.
Savoy cabbage (Brassica oleracea) in pots with soil and infested by all stages of the green peach aphid (Myzus persicae) is watered with an active compound preparation of the desired concentration.
as §3

Aphis gossypii = Aphis gossypii - spray test (APHIGO S), cotton plants; assay type: in vivo; details: 144 h, 6 dat, read-out: % efficacy
Method: Aphis gossypii—Spray Test (APHIGO S)
as §4, §1
as §2, with “water. If the addition of ammonium salts or/and penetrants is required, these are each added in a concentration of 1000 ppm to the formulation solution.” for “water.”
Cotton plants (Gossypium hirsutum) heavily infested by the cotton aphid (Aphis gossypii) are sprayed with an active ingredient formulation of the desired concentration.
After the desired time, the kill in % is determined. 100% means that all the aphids have been killed; 0% means that no aphids have been killed.

[7] = log P by HPLC on reversed-phase (C18) columns, OECD Guideline 117; assay type: physicochemical; details: reversed-phase (C18) HPLC column
Summary of the method: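 Reversed-phase C18 HPLC per OECD 117, LC-MS with a linear 10% to 95% acetonitrile gradient. Acidic method at pH 2.7 with 0.1% formic acid; neutral method at pH 7.8 with 0.001 M ammonium hydrogencarbonate.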

[8] = acidic range, pH 2.7, 0.1% aqueous formic acid/acetonitrile, read-out: logP[a]
[9] = neutral range, pH 7.8, aqueous ammonium hydrogencarbonate/acetonitrile, read-out: logP[n]

| chromatographic logP [7, 8] | chromatographic logP [7, 9] | SMILES | pest or weed control at 500 g/ha (Myzus persicae [1]) [%] | pest or weed control at 20 ppm (Myzus persicae [2]) [%] | Emax at 20 g/ha (Myzus persicae [3]) [%] | percent efficacy (aphid mortality) at 100 g/ha (Myzus persicae [3]) [%] | Emax at 4 ppm (Myzus persicae [4]) [%] | Emax at 0.16 ppm (Myzus persicae [5]) [%] | Emax at 0.16 ppm (Myzus persicae [6]) [%] | percent kill (mortality) of aphids at a fixed dose at 0.8 ppm (Aphis gossypii; 0.8 ppm) [%] | Emax at 4 ppm (Aphis gossypii; 4 ppm) [%] | percent efficacy (aphid mortality) at 20 g/ha (Myzus persicae [3]) [%] | Emax at 0.8 ppm (Aphis gossypii; 0.8 ppm) [%] | percent kill (mortality) of aphids at a fixed dose at 4 ppm (Aphis gossypii; 4 ppm) [%] |
| --- | --- | --- | --- | --- | --- | --- | --- | --- | --- | --- | --- | --- | --- | --- |
| 1.29 | 1.93 | CCN(C(=O)c1cnc(CSC(C)(C)C)n1C)c1cccnc1 [Example I-1-52] | 90 | 100 | 70 | 90 | 100 | 99 | 95 | – | – | – | – | 90 |
| 1.19 | 1.82 | CCN(C(=O)c1cnc(CSCC2CC2)n1C)c1cccnc1 [Example I-1-53] | 100 | 100 | – | 100 | 100 | 99 | 90 | 98 | 97 | 100 | – | – |
| 1.68 | 2.34 | CCN(C(=O)c1cnc(CSCC(C)(C)C)n1C)c1cccnc1 [Example I-1-54] | 90 | 100 | – | 90 | 100 | 99 | 90 | 90 | 95 | 90 | – | – |

The next lines start with the compound.

| SMILES | chromatographic logP [7, 8] | chromatographic logP [7, 9] | pest or weed control at 500 g/ha (Myzus persicae [1]) [%] | pest or weed control at 20 ppm (Myzus persicae [2]) [%] | Emax at 20 g/ha (Myzus persicae [3]) [%] | percent efficacy (aphid mortality) at 100 g/ha (Myzus persicae [3]) [%] | Emax at 4 ppm (Myzus persicae [4]) [%] | Emax at 0.16 ppm (Myzus persicae [5]) [%] | Emax at 0.16 ppm (Myzus persicae [6]) [%] | percent kill (mortality) of aphids at a fixed dose at 0.8 ppm (Aphis gossypii; 0.8 ppm) [%] | Emax at 4 ppm (Aphis gossypii; 4 ppm) [%] | percent efficacy (aphid mortality) at 20 g/ha (Myzus persicae [3]) [%] | Emax at 0.8 ppm (Aphis gossypii; 0.8 ppm) [%] | percent kill (mortality) of aphids at a fixed dose at 4 ppm (Aphis gossypii; 4 ppm) [%] |
| --- | --- | --- | --- | --- | --- | --- | --- | --- | --- | --- | --- | --- | --- | --- |
| CCN(C(=O)c1cnc(CSC(C)C)n1C)c1cccnc1 [Example I-1-50] | 1.1 | 1.73 | 90 | 100 | 70 | 90 | 100 | 100 | 98 | 90 | 95 | – | – | – |
| CCN(C(=O)c1cnc(CSCC(C)C)n1C)c1cccnc1 [Example I-1-51] | 1.32 | 2.05 | 100 | 100 | – | 90 | 100 | 99 | 98 | – | 99 | 90 | 99 | – |
